Reference: ChEMBL document CHEMBL1123847, “Synthesis and structure-activity relationship of 1-aryl-6,8-difluoroquinolone antibacterial agents” (1987)
Values after ≈ are worked out from the molar mass of the structure shown.

How the values were obtained:
Assay type in all cases: functional
Escherichia coli [1] = assay: Compound was evaluated in vivo for antibacterial activity against Escherichia coli Juhl (100 X LD50) (p.o. administration); Range is between (2.8-6.5); conditions: po
Escherichia coli [2] = assay: Compound was evaluated in vivo for antibacterial activity against Escherichia coli Juhl (100 X LD50) (s.c. administration); Range is between (0.3-1.3); conditions: sc
Klebsiella aerogenes = assay: In vitro antibacterial activity against Enterobacter aerogenes ATCC 13048
Escherichia coli [3] = assay: Compound was evaluated in vivo for antibacterial activity against Escherichia coli Juhl (100 X LD50) (p.o. administration); Range is between (3.8-11.2)
Escherichia coli [4] = assay: In vitro antibacterial activity against Escherichia coli Juhl
Klebsiella pneumoniae = assay: In vitro antibacterial activity against Klebsiella pneumoniae 8045
Pseudomonas aeruginosa [5] = assay: Compound was evaluated in vivo for antibacterial activity against Pseudomonas aeruginosa 5007 (100 X LD50) (s.c. administration); Range is between (1.0-2.5); conditions: sc
Pseudomonas aeruginosa [6] = assay: In vitro antibacterial activity against Pseudomonas aeruginosa K799/WT
Pseudomonas aeruginosa [7] = assay: Compound was evaluated in vivo for antibacterial activity against Pseudomonas aeruginosa 5007 (100 X LD50);
[8] = tested on: Staphylococcus epidermidis; assay: In vitro antibacterial activity against Staphylococcus epidermis 3519
Streptococcus pyogenes = assay: In vitro antibacterial activity against Streptococcus pyogenes 930
Staphylococcus aureus [9] = assay: Compound was evaluated in vivo for antibacterial activity against Staphylococcus aureus NCTC 10649 (100 X LD50) (s.c. administration); Range is between (1.0-2.5); conditions: sc
Staphylococcus aureus [10] = assay: In vitro antibacterial activity against Staphylococcus aureus CMX 686B
Staphylococcus aureus [11] = assay: In vitro antibacterial activity against Staphylococcus aureus ATCC 6538P
Enterococcus faecium = assay: In vitro antibacterial activity against Streptococcus faecium ATCC 8043
Acinetobacter = assay: In vitro antibacterial activity against Acinetobacter CMX 669
Pseudomonas aeruginosa [12] = assay: In vitro antibacterial activity against Pseudomonas aeruginosa 5007
Pseudomonas aeruginosa [13] = assay: Compound was evaluated in vivo for antibacterial activity against Pseudomonas aeruginosa 5007 (100 X LD50) (p.o. administration); Range is between (13.4-34.4); conditions: po
Escherichia coli [14] = assay: […] against Escherichia coli Juhl (100 X LD50) (p.o. administration );Range is between (2.2-7.0)
Escherichia coli [15] = assay: […] against Escherichia coli Juhl (100 X LD50) (s.c. administration );Range is between (1.6-3.9)
Pseudomonas aeruginosa [16] = assay: […] against Pseudomonas aeruginosa 5007 (100 X LD50) (peroral administration );Range is between (17.7-44.1)
Pseudomonas aeruginosa [17] = assay: […] against Pseudomonas aeruginosa 5007 (100 X LD50) (subcutaneous administration );Range is between (6.6-16.2)
Staphylococcus aureus [18] = assay: In vitro mouse protection test against Staphylococcus aureus NCTC 10649 (100 X LD50) (s.c. administration );Range is between (2.6-5.4).; conditions: sc
Staphylococcus aureus [19] = assay: […] against Staphylococcus aureus NCTC 10649 (100 X LD50),(peroral administration); Range is between (3.7-10.2).; conditions: po
Escherichia coli [20] = assay: […] against Escherichia coli Juhl (100 X LD50) (s.c. administration); Range is between(1.0-1.8)
Escherichia coli [21] = assay: […] against Escherichia coli Juhl (100 X LD50) (s.c. administration); Range is between(0.2-0.5); conditions: sc
Pseudomonas aeruginosa [22] = assay: FIn vitro antibacterial activity against Pseudomonas aeruginosa K799/WT

Compound | MIC (Klebsiella aerogenes) [µg/mL] | MIC (Escherichia coli [4]) [µg/mL] | MIC (Klebsiella pneumoniae) [µg/mL] | MIC (Pseudomonas aeruginosa [6]) [µg/mL] | MIC [8] [µg/mL] | MIC (Streptococcus pyogenes) [µg/mL] | MIC (Staphylococcus aureus [10]) [µg/mL] | MIC (Staphylococcus aureus [11]) [µg/mL] | MIC (Enterococcus faecium) [µg/mL] | MIC (Acinetobacter) [µg/mL] | MIC (Pseudomonas aeruginosa [12]) [µg/mL] | other results
Cl.O=C(O)c1cn(-c2ccc(F)cc2)c2cc(N3CCNCC3)c(F)cc2c1=O [SARAFLOXACIN HYDROCHLORIDE] | 0.2 | 0.05 | 0.02 | 0.39 | 0.39 | 0.78 | 0.2 | 0.2 | 1.56 | 0.2 | 0.39 | ED50 (Escherichia coli [1]): 4.3 mg/kg; ED50 (Escherichia coli [2]): 0.6 mg/kg; ED50 mg/kg (Escherichia coli [3]): 6.5; ED50 (Pseudomonas aeruginosa [5]): 1.6 mg/kg; MIC (Pseudomonas aeruginosa [7]): 0.39 µg/mL; ED50 (Staphylococcus aureus [9]): 1.6 mg/kg; ED50 (Pseudomonas aeruginosa [13]): 21.4 mg/kg
NC1CCN(c2c(F)cc3c(=O)c(C(=O)O)cn(-c4ccc(F)cc4F)c3c2F)C1 (stereo unspecified) | 0.2 (≈ 0.475 µM) | 0.1 (≈ 0.237 µM) | 0.1 (≈ 0.237 µM) | 0.78 (≈ 1.85 µM) | 0.39 (≈ 0.926 µM) | 0.78 (≈ 1.85 µM) | 0.2 (≈ 0.475 µM) | 0.2 (≈ 0.475 µM) | 1.56 (≈ 3.7 µM) | 0.39 (≈ 0.926 µM) | 1.56 (≈ 3.7 µM) | –
CN1CCN(c2c(F)cc3c(=O)c(C(=O)O)cn(-c4ccc(F)cc4F)c3c2F)CC1 | 0.39 (≈ 0.896 µM) | 0.39 (≈ 0.896 µM) | 0.2 (≈ 0.459 µM) | 1.56 (≈ 3.58 µM) | 0.78 (≈ 1.79 µM) | 3.1 (≈ 7.12 µM) | 0.39 (≈ 0.896 µM) | 0.39 (≈ 0.896 µM) | 6.2 (≈ 14.2 µM) | 0.39 (≈ 0.896 µM) | 3.1 (≈ 7.12 µM) | ED50 mg/kg (Escherichia coli [14]): 3.9; ED50 mg/kg (Escherichia coli [15]): 2.5; ED50 mg/kg (Pseudomonas aeruginosa [16]): 27.9; ED50 mg/kg (Pseudomonas aeruginosa [17]): 10.3; ED50 (Staphylococcus aureus [18]): 3.7 mg/kg; ED50 (Staphylococcus aureus [19]): 6.1 mg/kg
CN1CCN(c2c(F)cc3c(=O)c(C(=O)O)cn(-c4ccc(F)cc4)c3c2F)CC1 | 0.78 (≈ 1.87 µM) | 0.39 (≈ 0.934 µM) | 0.39 (≈ 0.934 µM) | 3.1 (≈ 7.43 µM) | 0.78 (≈ 1.87 µM) | 3.1 (≈ 7.43 µM) | 0.39 (≈ 0.934 µM) | 0.39 (≈ 0.934 µM) | 3.1 (≈ 7.43 µM) | 0.39 (≈ 0.934 µM) | 3.1 (≈ 7.43 µM) | ED50 mg/kg (Escherichia coli [20]): 1.3
NC1CCN(c2c(F)cc3c(=O)c(C(=O)O)cn(-c4ccc(F)cc4)c3c2F)C1 (stereo unspecified) | 0.2 (≈ 0.496 µM) | 0.2 (≈ 0.496 µM) | 0.05 (≈ 0.124 µM) | 1.56 (≈ 3.87 µM) | 0.39 (≈ 0.967 µM) | 1.56 (≈ 3.87 µM) | 0.2 (≈ 0.496 µM) | 0.2 (≈ 0.496 µM) | 3.1 (≈ 7.69 µM) | 0.78 (≈ 1.93 µM) | 3.1 (≈ 7.69 µM) | –
O=C(O)c1cn(-c2ccc(F)cc2F)c2c(F)c(N3CCNCC3)c(F)cc2c1=O | 0.2 (≈ 0.475 µM) | 0.05 (≈ 0.119 µM) | 0.05 (≈ 0.119 µM) | – | 0.78 (≈ 1.85 µM) | 1.56 (≈ 3.7 µM) | 0.39 (≈ 0.926 µM) | 0.39 (≈ 0.926 µM) | 1.56 (≈ 3.7 µM) | 0.39 (≈ 0.926 µM) | 0.78 (≈ 1.85 µM) | ED50 (Escherichia coli [21]): 0.3 mg/kg; MIC (Pseudomonas aeruginosa [22]): 0.78 µg/mL (≈ 1.85 µM)
